Data from ChEMBL document CHEMBL4804284.

Legend:
Design in all cases: scale not given: the % may be the effect or the level left
[1] = molecular target: Cyclin-dependent kinase-like 3 (Homo sapiens) (UniProt Q8IVW4); experiment: Inhibition of DNA-tagged human CDKL3 assessed as percent of control at 50000 nM by qPCR analysis relative to control
[2] = molecular target: Casein kinase I isoform epsilon (Homo sapiens) (UniProt P49674); experiment: Inhibition of DNA-tagged human CSNK1E assessed as percent of control at 50000 nM by qPCR analysis relative to control
[3] = molecular target: Cyclin-dependent kinase 13 (Homo sapiens) (UniProt Q14004); experiment: Inhibition of DNA-tagged human CDC2L5 assessed as percent of control at 50000 nM by qPCR analysis relative to control
[4] = molecular target: Dual specificity protein kinase TTK (Homo sapiens) (UniProt P33981); experiment: Inhibition of DNA-tagged human TTK assessed as percent of control at 50000 nM by qPCR analysis relative to control
[5] = molecular target: Receptor tyrosine-protein kinase erbB-2 (Homo sapiens) (UniProt P04626); experiment: Inhibition of DNA-tagged human ERBB2 assessed as percent of control at 50000 nM by qPCR analysis relative to control
[6] = molecular target: Serine/threonine-protein kinase pim-1 (Homo sapiens) (UniProt P11309); experiment: Inhibition of DNA-tagged human PIM1 assessed as percent of control at 50000 nM by qPCR analysis relative to control
[7] = test system: Tyrosine-protein kinase ABL1 (Homo sapiens), P00519 [F317I]; experiment: Inhibition of DNA-tagged non-phosphorylated human ABL1 F317I mutant assessed as percent of control at 50000 nM by qPCR analysis relative to control
[8] = molecular target: Ribosomal protein S6 kinase alpha-1 (Homo sapiens) (UniProt Q15418); experiment: Inhibition of DNA-tagged human N-terminal RSK1 kinase domain 1 assessed as percent of control at 50000 nM by qPCR analysis relative to control
[9] = test system: Epidermal growth factor receptor (Homo sapiens), P00533 [UNDEFINED MUTATION]; experiment: Inhibition of DNA-tagged human EGFR L747-E749del/A750P double mutant assessed as percent of control at 50000 nM by qPCR analysis relative to control
[10] = molecular target: Serine/threonine-protein kinase BRSK2 (Homo sapiens) (UniProt Q8IWQ3); experiment: Inhibition of DNA-tagged human BRSK2 assessed as percent of control at 50000 nM by qPCR analysis relative to control
[11] = molecular target: Mitogen-activated protein kinase kinase kinase 13 (Homo sapiens) (UniProt O43283); experiment: Inhibition of DNA-tagged human LZK assessed as percent of control at 50000 nM by qPCR analysis relative to control
[12] = molecular target: Mitogen-activated protein kinase kinase kinase 1 (Homo sapiens) (UniProt Q13233); experiment: Inhibition of DNA-tagged human MAP3K1 assessed as percent of control at 50000 nM by qPCR analysis relative to control
[13] = molecular target: Phosphatidylinositol 5-phosphate 4-kinase type-2 beta (Homo sapiens) (UniProt P78356); experiment: Inhibition of DNA-tagged human PIP5K2B assessed as percent of control at 50000 nM by qPCR analysis relative to control
[14] = molecular target: Calcium/calmodulin-dependent protein kinase type 1 (Homo sapiens) (UniProt Q14012); experiment: Inhibition of DNA-tagged human CAMK1 assessed as percent of control at 50000 nM by qPCR analysis relative to control
[15] = molecular target: Serine/threonine-protein kinase LATS1 (Homo sapiens) (UniProt O95835); experiment: Inhibition of DNA-tagged human LATS1 assessed as percent of control at 50000 nM by qPCR analysis relative to control
[16] = molecular target: Cyclin-dependent kinase 11A (Homo sapiens) (UniProt Q9UQ88); experiment: Inhibition of DNA-tagged human CDC2L2 assessed as percent of control at 50000 nM by qPCR analysis relative to control
[17] = molecular target: Dual specificity tyrosine-phosphorylation-regulated kinase 1A (Homo sapiens) (UniProt Q13627); experiment: Inhibition of DNA-tagged human DYRK1A assessed as percent of control at 50000 nM by qPCR analysis relative to control
[18] = molecular target: Serine/threonine-protein kinase Nek3 (Homo sapiens) (UniProt P51956); experiment: Inhibition of DNA-tagged human NEK3 assessed as percent of control at 50000 nM by qPCR analysis relative to control
[19] = molecular target: Mitogen-activated protein kinase kinase kinase 7 (Homo sapiens) (UniProt O43318); experiment: Inhibition of DNA-tagged human TAK1 assessed as percent of control at 50000 nM by qPCR analysis relative to control
[20] = molecular target: Ribosomal protein S6 kinase alpha-2 (Homo sapiens) (UniProt Q15349); experiment: Inhibition of DNA-tagged human N-terminal RSK3 kinase domain 1 assessed as percent of control at 50000 nM by qPCR analysis relative to control
[21] = molecular target: Discoidin domain-containing receptor 2 (Homo sapiens) (UniProt Q16832); experiment: Inhibition of DNA-tagged human DDR2 assessed as percent of control at 50000 nM by qPCR analysis relative to control
[22] = molecular target: Dual specificity mitogen-activated protein kinase kinase 1 (Homo sapiens) (UniProt Q02750); experiment: Inhibition of DNA-tagged human MEK1 assessed as percent of control at 50000 nM by qPCR analysis relative to control
[23] = molecular target: Serine/threonine-protein kinase MRCK gamma (Homo sapiens) (UniProt Q6DT37); experiment: Inhibition of DNA-tagged human DMPK2 assessed as percent of control at 50000 nM by qPCR analysis relative to control
[24] = test system: Mast/stem cell growth factor receptor Kit (Homo sapiens), P10721 [L576P]; experiment: Inhibition of DNA-tagged human KIT L576P mutant assessed as percent of control at 50000 nM by qPCR analysis relative to control
[25] = molecular target: Rhodopsin kinase GRK1 (Homo sapiens) (UniProt Q15835); experiment: Inhibition of DNA-tagged human GRK1 assessed as percent of control at 50000 nM by qPCR analysis relative to control
[26] = molecular target: Uncharacterized serine/threonine-protein kinase SBK3 (Homo sapiens) (UniProt P0C264); experiment: Inhibition of DNA-tagged human SgK110 assessed as percent of control at 50000 nM by qPCR analysis relative to control
[27] = molecular target: Dual specificity mitogen-activated protein kinase kinase 4 (Homo sapiens) (UniProt P45985); experiment: Inhibition of DNA-tagged human MEK4 assessed as percent of control at 50000 nM by qPCR analysis relative to control
[28] = molecular target: Phosphatidylinositol 3-kinase C2 domain-containing subunit gamma (Homo sapiens) (UniProt O75747); experiment: Inhibition of DNA-tagged human PIK3C2G assessed as percent of control at 50000 nM by qPCR analysis relative to control
[29] = molecular target: Cyclin-dependent kinase 3 (Homo sapiens) (UniProt Q00526); experiment: Inhibition of DNA-tagged human CDK3 assessed as percent of control at 50000 nM by qPCR analysis relative to control

Sequence of Receptor tyrosine-protein kinase erbB-2 (Homo sapiens) (P04626 whole entry): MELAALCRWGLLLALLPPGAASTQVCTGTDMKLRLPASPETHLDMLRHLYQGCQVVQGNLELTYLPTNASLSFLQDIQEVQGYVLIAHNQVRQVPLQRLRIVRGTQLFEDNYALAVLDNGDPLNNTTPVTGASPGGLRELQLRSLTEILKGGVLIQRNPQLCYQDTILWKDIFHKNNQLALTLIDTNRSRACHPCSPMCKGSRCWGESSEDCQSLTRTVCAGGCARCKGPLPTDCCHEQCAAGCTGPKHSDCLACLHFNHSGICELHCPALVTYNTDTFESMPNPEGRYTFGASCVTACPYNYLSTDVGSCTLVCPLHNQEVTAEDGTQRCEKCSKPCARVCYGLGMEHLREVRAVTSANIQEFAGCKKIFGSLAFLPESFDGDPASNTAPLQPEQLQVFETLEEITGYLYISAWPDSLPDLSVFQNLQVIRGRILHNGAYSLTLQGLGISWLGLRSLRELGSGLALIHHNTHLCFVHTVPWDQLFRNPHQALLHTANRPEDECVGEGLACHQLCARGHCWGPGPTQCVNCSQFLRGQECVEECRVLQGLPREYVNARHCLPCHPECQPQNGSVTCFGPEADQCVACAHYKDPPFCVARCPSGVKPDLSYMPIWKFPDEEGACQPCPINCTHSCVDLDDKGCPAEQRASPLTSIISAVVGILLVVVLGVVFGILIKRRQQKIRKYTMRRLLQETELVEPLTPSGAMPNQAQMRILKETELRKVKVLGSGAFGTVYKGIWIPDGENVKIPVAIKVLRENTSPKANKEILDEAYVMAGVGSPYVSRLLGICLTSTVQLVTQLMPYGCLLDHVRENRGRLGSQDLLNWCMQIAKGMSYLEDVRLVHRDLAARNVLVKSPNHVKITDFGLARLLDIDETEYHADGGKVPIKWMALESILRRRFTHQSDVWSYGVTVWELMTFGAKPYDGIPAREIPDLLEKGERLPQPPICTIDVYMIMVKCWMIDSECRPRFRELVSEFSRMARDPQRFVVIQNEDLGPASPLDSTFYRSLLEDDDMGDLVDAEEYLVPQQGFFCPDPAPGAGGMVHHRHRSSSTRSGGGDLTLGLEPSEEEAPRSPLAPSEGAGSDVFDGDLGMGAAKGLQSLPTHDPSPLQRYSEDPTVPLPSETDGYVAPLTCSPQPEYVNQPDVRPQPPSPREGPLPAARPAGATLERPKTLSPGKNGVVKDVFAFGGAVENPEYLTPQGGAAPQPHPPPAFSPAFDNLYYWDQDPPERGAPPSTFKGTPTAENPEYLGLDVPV
Sequence of Ribosomal protein S6 kinase alpha-2 (Homo sapiens) (Q15349 whole entry, the tested form may be a part): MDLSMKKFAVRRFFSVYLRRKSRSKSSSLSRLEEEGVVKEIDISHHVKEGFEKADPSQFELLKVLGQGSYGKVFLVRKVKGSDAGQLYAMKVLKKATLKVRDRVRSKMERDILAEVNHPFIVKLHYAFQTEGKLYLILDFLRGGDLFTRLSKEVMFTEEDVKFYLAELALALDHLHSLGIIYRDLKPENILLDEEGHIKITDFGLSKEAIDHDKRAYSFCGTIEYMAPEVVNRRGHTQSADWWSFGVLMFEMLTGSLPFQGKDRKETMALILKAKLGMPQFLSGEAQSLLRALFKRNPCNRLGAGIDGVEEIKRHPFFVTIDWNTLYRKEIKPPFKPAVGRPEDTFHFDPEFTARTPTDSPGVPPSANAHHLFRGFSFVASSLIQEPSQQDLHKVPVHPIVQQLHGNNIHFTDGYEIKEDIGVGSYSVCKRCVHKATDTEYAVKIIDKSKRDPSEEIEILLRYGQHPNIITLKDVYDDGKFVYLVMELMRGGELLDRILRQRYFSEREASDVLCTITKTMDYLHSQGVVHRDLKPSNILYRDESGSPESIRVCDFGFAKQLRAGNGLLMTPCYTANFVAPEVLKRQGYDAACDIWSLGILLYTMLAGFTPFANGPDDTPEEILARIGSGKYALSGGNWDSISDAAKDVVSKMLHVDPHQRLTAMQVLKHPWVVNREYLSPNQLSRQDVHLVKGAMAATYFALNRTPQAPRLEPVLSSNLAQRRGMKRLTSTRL
Sequence of Tyrosine-protein kinase ABL1 (Homo sapiens), P00519 [F317I] (P00519 whole entry F317I, the tested form may be a part): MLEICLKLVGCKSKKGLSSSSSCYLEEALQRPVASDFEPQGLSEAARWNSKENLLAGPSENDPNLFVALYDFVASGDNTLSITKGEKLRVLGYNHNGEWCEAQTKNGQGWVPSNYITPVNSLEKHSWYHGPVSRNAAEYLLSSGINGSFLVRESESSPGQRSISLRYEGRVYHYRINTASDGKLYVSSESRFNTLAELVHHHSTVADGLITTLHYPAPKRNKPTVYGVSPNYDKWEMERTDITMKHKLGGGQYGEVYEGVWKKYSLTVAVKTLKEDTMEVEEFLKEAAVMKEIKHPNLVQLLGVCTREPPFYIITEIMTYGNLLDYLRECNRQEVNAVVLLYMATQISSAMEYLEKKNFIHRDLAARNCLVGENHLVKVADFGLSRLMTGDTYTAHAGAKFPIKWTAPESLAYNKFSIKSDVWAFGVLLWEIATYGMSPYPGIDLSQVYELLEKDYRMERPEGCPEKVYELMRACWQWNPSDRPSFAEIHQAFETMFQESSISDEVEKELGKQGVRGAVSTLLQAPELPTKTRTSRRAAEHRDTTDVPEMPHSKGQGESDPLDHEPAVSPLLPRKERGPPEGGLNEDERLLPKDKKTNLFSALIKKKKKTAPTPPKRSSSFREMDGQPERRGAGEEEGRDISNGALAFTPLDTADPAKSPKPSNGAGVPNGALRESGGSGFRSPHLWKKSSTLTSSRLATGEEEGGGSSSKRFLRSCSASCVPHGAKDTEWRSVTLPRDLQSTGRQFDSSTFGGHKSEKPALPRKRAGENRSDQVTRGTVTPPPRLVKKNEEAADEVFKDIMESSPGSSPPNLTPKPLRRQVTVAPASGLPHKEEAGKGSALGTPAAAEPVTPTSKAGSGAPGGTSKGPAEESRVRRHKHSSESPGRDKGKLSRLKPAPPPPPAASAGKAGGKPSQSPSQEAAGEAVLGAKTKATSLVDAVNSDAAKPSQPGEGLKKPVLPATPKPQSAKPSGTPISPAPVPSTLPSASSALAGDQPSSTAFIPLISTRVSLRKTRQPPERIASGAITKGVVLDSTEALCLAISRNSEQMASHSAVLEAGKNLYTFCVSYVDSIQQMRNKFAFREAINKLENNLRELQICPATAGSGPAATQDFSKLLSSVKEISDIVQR
Sequence of Mitogen-activated protein kinase kinase kinase 1 (Homo sapiens) (Q13233 whole entry): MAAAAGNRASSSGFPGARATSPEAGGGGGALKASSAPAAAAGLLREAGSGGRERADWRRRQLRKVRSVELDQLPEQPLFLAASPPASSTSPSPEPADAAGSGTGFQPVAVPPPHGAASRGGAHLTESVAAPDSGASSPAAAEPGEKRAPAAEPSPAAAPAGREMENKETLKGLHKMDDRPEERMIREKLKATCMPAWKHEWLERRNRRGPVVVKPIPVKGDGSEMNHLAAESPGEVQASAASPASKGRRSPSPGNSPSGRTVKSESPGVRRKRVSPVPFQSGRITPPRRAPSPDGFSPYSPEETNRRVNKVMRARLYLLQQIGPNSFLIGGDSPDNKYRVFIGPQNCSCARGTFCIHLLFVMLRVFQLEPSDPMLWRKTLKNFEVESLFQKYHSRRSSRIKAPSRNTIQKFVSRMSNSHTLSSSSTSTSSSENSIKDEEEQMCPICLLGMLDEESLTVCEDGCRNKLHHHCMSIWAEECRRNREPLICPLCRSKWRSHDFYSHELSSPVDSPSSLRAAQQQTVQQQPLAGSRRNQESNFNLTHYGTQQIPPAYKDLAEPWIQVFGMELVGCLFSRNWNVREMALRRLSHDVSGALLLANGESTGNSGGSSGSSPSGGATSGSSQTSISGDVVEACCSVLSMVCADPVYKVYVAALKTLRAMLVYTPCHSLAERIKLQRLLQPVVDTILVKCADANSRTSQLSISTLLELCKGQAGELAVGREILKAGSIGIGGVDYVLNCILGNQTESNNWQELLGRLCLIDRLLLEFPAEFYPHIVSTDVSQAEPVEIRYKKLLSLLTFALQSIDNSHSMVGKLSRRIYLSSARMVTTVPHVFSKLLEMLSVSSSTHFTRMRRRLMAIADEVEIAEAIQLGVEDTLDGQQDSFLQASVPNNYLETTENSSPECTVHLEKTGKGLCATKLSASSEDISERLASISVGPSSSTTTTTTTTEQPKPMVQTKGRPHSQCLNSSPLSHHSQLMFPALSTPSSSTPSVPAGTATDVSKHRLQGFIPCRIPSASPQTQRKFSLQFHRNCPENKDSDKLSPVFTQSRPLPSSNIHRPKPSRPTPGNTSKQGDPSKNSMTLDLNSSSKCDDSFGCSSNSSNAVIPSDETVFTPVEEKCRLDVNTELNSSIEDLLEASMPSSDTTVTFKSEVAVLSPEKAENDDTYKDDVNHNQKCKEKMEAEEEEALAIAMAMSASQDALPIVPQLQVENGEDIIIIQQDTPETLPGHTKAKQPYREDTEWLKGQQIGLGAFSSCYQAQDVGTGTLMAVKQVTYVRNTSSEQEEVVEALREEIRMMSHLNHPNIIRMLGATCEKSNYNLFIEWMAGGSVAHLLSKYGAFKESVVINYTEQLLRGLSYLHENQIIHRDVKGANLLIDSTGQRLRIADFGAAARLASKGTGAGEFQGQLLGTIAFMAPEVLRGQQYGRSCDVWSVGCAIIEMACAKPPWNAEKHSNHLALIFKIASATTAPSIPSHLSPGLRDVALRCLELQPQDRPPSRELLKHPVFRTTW
Sequence of Serine/threonine-protein kinase pim-1 (Homo sapiens) (P11309 whole entry, looked up): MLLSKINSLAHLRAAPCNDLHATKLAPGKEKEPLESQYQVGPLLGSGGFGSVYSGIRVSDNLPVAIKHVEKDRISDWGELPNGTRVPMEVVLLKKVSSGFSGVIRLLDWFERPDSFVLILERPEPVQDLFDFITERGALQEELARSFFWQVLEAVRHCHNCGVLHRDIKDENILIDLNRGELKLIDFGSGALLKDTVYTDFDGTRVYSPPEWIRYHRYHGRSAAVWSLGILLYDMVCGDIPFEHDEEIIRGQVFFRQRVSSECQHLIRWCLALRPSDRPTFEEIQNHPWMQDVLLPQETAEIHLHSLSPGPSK

CN1C(=O)/C(=C2/C(=O)Nc3ccccc32)c2ccccc21 gave an Activity [1] of 100%, an Activity [2] of 91% and an Activity [3] of 100%. For the same compound, the Activity [4] was 88%, the Activity [5] was 100% and the Activity [6] was 83%. For the same compound, the Activity [7] was 100%, the Activity [8] was 96% and the Activity [9] was 83%. It also gave an Activity [10] of 100%, an Activity [11] of 63% and an Activity [12] of 83%. For the same compound, the Activity [13] was 100%, the Activity [14] was 88% and the Activity [15] was 100%. It also gave an Activity [16] of 100%, an Activity [17] of 100% and an Activity [18] of 92%. It also gave an Activity [19] of 78%, an Activity [20] of 100% and an Activity [21] of 86%. It also gave an Activity [22] of 81%, an Activity [23] of 92% and an Activity [24] of 98%. For the same compound, the Activity [25] was 100%, the Activity [26] was 100% and the Activity [27] was 100%. It also gave an Activity [28] of 99% and an Activity [29] of 78%.
